From US10750742B2, “Pesticidally active pyrazole derivatives” (SYNGENTA PARTICIPATIONS AG, priority 2015, dated 2020)
Like-named read-outs stand apart in the source and are kept apart here.

Key:
Assay type in all cases: in vivo
Spodoptera littoralis = Spodoptera littoralis (Egyptian cotton leaf worm), cotton leaf disc spray test; details: foliar, 72 h, read-out: control (at least one of mortality, anti-feedant effect, growth inhibition); for percent control (mortality, anti-feedant effect or growth inhibition) at 200 ppm: application rate 200 ppm, L1 larvae, 3 days after infestation
Protocol: Spodoptera littoralis (Egyptian Cotton Leaf Worm)
Cotton leaf discs were placed on agar in 24-well microtiter plates and sprayed with aqueous test solutions prepared from 10′000 ppm DMSO stock solutions. After drying the leaf discs were infested with five L1 larvae. The samples were assessed for mortality, anti-feedant effect, and growth inhibition in comparison to untreated samples 3 days after infestation. Control of Spodoptera littoralis by a test sample is when at least one of mortality, anti-feedant effect, and growth inhibition is higher than the untreated sample.

Plutella xylostella = Plutella xylostella (diamond back moth), artificial diet test; details: 120 h, read-out: control (mortality and growth inhibition)
Protocol: Plutella xylostella (Diamond Back Moth):
(§1) 24-well microtiter plates with artificial diet were treated with aqueous test solutions prepared from 10′000 ppm DMSO stock solutions by pipetting. After drying, the plates were infested with L2 larvae (10 to 15 per well). The samples were assessed for mortality and growth inhibition in comparison to untreated samples 5 days after infestation.

Diabrotica balteata = Diabrotica balteata (corn root worm), maize sprout test; details: 96 h, read-out: control (mortality and growth inhibition)
Protocol: Diabrotica balteata, (Corn Root Worm)
as §1, with “Maize sprouts, placed on an agar layer in 24-well” for “24-well”, “plates” for “plates with artificial diet”, “spraying.” for “pipetting.”, “(6” for “(10”, “10” for “15”, “4” for “5”

Thrips tabaci = Thrips tabaci (onion thrips), sunflower leaf disc test; details: foliar, 144 h, read-out: control (mortality)
Protocol: Thrips tabaci (Onion Thrips):
(§2) Sunflower leaf discs were placed on agar in 24-well microtiter plates and sprayed with aqueous test solutions prepared from 10′000 ppm DMSO stock solutions. After drying the leaf discs were infested with a thrips population of mixed ages. The samples were assessed for mortality 6 days after infestation.

Tetranychus urticae = Tetranychus urticae (two-spotted spider mite), bean leaf disc test; details: foliar, 192 h, read-out: control (mortality on mixed population, mobile stages)
Protocol: Tetranychus urticae (Two-Spotted Spider Mite):
as §2, with “Bean” for “Sunflower”, “discs” for “discs were placed”, “were” for “and”, “mite” for “thrips”, “on mixed population (mobile stages) 8” for “6”

Euschistus heros = Euschistus heros (neotropical brown stink bug), soybean leaf test; details: 120 h, read-out: effect in at least one of the two categories (mortality or growth inhibition); for percent effect (mortality or growth inhibition) at 200 ppm: application rate 200 ppm, N2 nymphs, 5 days after infestation
Protocol: Euschistus heros (Neotropical Brown Stink Bug):
Soybean leaves on agar in 24-well microtiter plates were sprayed with aqueous test solutions prepared from 10′000 ppm DMSO stock solutions. After drying the leaves were infested with N2 nymphs. The samples were assessed for mortality and growth inhibition in comparison to untreated samples 5 days after infestation.

Myzus persicae [1] = test: Myzus persicae (green peach aphid), sunflower leaf disc spray test; details: foliar, 144 h
Protocol: (§3) Myzus persicae (Green Peach Aphid):
Sunflower leaf discs were placed on agar in a 24-well microtiter plate and sprayed with test solutions at an application rate of 200 ppm. After drying, the leaf discs were infested with an aphid population of mixed ages. After an incubation period of 6 DAT, samples were checked for mortality. The following compounds gave at least 80% mortality of Myzus persicae: compounds 1,2, 3, 4, 5, 6, 11, 12, 15, 17, 18, 19, 20, 23, 24, 25, 26, 27, 30, 32, 33, 34 35, 41, 43, 44, 47, 50, 55, 58, 59, 60, 61, 62, 63, 64, 65 and 66.

Myzus persicae [2] = test: Myzus persicae (green peach aphid), sucrose solution / Parafilm test; details: 120 h
Text: as §3
Test compounds were applied by pipette into 24 well plates and mixed with Sucrose solution. Application rate: 12.5 ppm. The plates were closed with a stretched parafilm. A plastic stencil with 24 holes is placed onto the plate and infested pea seedlings were placed directly on the Parafilm. The infested plate is closed with a gel blotting paper and another plastic stencil and then turned upside down. 5 days after infestation the samples were checked on mortality.

[3] = application rate 200 ppm, L2 larvae, 5 days after infestation
[4] = application rate 200 ppm, L2 larvae, 4 days after infestation
[5] = application rate 200 ppm, mixed ages, 6 days after infestation
[6] = application rate 200 ppm, 8 days after infestation
[7] = application rate 200 ppm, mixed ages, 6 DAT, read-out: mortality
[8] = test rate of 12 ppm, sucrose solution, 5 days after infestation, read-out: mortality

Cn1nc(OC(F)(F)C(F)C(F)(F)F)c(C(F)(F)F)c1-n1cc(-c2ccc(F)c(C(=O)NC3(C#N)CC3)c2)cn1 (stereo not drawn) [compound 59]
≥ 80%: percent control (mortality, anti-feedant effect or growth inhibition) at 200 ppm (Spodoptera littoralis) | mortality at 200 ppm (Plutella xylostella; [3]) | mortality at 200 ppm (Diabrotica balteata; [4]) | mortality at 200 ppm (Thrips tabaci; [5]) | mortality at 200 ppm (Tetranychus urticae; [6]) | percent effect (mortality or growth inhibition) at 200 ppm (Euschistus heros) | mortality at 200 ppm (Myzus persicae [1]; [7]) | mortality at 12 ppm (Myzus persicae [2]; [8])

Cn1nc(OCC(F)(F)OC(F)(F)C(F)(F)OC(F)(F)F)c(C(F)(F)F)c1-n1cc(-c2ccc(Cl)c(C(=O)NC3(C#N)CC3)c2)cn1 [compound 18]
≥ 80%: percent control (mortality, anti-feedant effect or growth inhibition) at 200 ppm (Spodoptera littoralis) | mortality at 200 ppm (Plutella xylostella; [3]) | mortality at 200 ppm (Diabrotica balteata; [4]) | mortality at 200 ppm (Thrips tabaci; [5]) | mortality at 200 ppm (Tetranychus urticae; [6]) | percent effect (mortality or growth inhibition) at 200 ppm (Euschistus heros) | mortality at 200 ppm (Myzus persicae [1]; [7]) | mortality at 12 ppm (Myzus persicae [2]; [8])

Cn1nc(OCC(F)(F)OC(F)(F)C(F)(F)OC(F)(F)F)c(C(F)(F)F)c1-n1cc(-c2ccc(Cl)c(C(=O)NC3CC3)c2)cn1 [compound 25]
≥ 80%: percent control (mortality, anti-feedant effect or growth inhibition) at 200 ppm (Spodoptera littoralis) | mortality at 200 ppm (Plutella xylostella; [3]) | mortality at 200 ppm (Diabrotica balteata; [4]) | mortality at 200 ppm (Thrips tabaci; [5]) | mortality at 200 ppm (Tetranychus urticae; [6]) | percent effect (mortality or growth inhibition) at 200 ppm (Euschistus heros) | mortality at 200 ppm (Myzus persicae [1]; [7]) | mortality at 12 ppm (Myzus persicae [2]; [8])

Cn1nc(OCC(F)(F)C(F)(F)C(F)(F)F)c(C(F)(F)F)c1-n1cc(-c2ccc(Cl)c(C(=O)NC3CC3)c2)cn1 [compound 26]
≥ 80%: mortality at 200 ppm (Spodoptera littoralis) | mortality at 200 ppm (Plutella xylostella) | mortality at 200 ppm (Diabrotica balteata) | mortality at 200 ppm (Thrips tabaci) | mortality at 200 ppm (Tetranychus urticae) | percent control (mortality or growth inhibition) at 200 ppm (Euschistus heros) | mortality at 200 ppm (Myzus persicae [1]) | mortality at 12 ppm (Myzus persicae [2])

Cn1nc(OC(F)(F)C(F)Br)c(C(F)(F)F)c1-n1cc(-c2ccc(Cl)c(C(=O)NC3(C#N)CC3)c2)cn1 (stereo not drawn) [compound 47]
≥ 80%: percent control (mortality, anti-feedant effect or growth inhibition) at 200 ppm (Spodoptera littoralis) | mortality at 200 ppm (Plutella xylostella; [3]) | mortality at 200 ppm (Diabrotica balteata; [4]) | mortality at 200 ppm (Thrips tabaci; [5]) | mortality at 200 ppm (Tetranychus urticae; [6]) | percent effect (mortality or growth inhibition) at 200 ppm (Euschistus heros) | mortality at 200 ppm (Myzus persicae [1]; [7]) | mortality at 12 ppm (Myzus persicae [2]; [8])

Cn1nc(OCC(F)(F)C(F)(F)C(F)(F)C(F)F)c(C(F)(F)F)c1-n1cc(-c2ccc(Cl)c(C(=O)NC3CC3)c2)cn1 [compound 27]
≥ 80%: mortality at 200 ppm (Spodoptera littoralis) | mortality at 200 ppm (Plutella xylostella) | mortality at 200 ppm (Diabrotica balteata) | mortality at 200 ppm (Thrips tabaci) | mortality at 200 ppm (Tetranychus urticae) | percent control (mortality or growth inhibition) at 200 ppm (Euschistus heros) | mortality at 200 ppm (Myzus persicae [1]) | mortality at 12 ppm (Myzus persicae [2])

Cn1nc(OCC(F)(F)C(F)(F)C(F)(F)F)c(C(F)(F)F)c1-n1cc(-c2ccc(Cl)c(C(=O)NC3(C#N)CC3)c2)cn1 [compound 19]
≥ 80%: mortality at 200 ppm (Spodoptera littoralis) | mortality at 200 ppm (Plutella xylostella) | mortality at 200 ppm (Diabrotica balteata) | mortality at 200 ppm (Thrips tabaci) | mortality at 200 ppm (Tetranychus urticae) | percent control (mortality or growth inhibition) at 200 ppm (Euschistus heros) | mortality at 200 ppm (Myzus persicae [1]) | mortality at 12 ppm (Myzus persicae [2])

Cn1nc(OCC(F)(F)F)c(C(F)(F)F)c1-n1cc(-c2ccc(Cl)c(C(=O)NC3CC3)c2)cn1 [compound 2]
≥ 80%: percent control (mortality, anti-feedant effect or growth inhibition) at 200 ppm (Spodoptera littoralis) | mortality at 200 ppm (Plutella xylostella; [3]) | mortality at 200 ppm (Diabrotica balteata; [4]) | mortality at 200 ppm (Thrips tabaci; [5]) | mortality at 200 ppm (Tetranychus urticae; [6]) | percent effect (mortality or growth inhibition) at 200 ppm (Euschistus heros) | mortality at 200 ppm (Myzus persicae [1]; [7]) | mortality at 12 ppm (Myzus persicae [2]; [8])

Cn1nc(OC(F)(F)C(F)F)c(C(F)(F)F)c1-n1cc(-c2ccc(Cl)c(C(=O)NC3(C#N)CC3)c2)cn1 [compound 11]
≥ 80%: percent control (mortality, anti-feedant effect or growth inhibition) at 200 ppm (Spodoptera littoralis) | mortality at 200 ppm (Plutella xylostella; [3]) | mortality at 200 ppm (Diabrotica balteata; [4]) | mortality at 200 ppm (Thrips tabaci; [5]) | mortality at 200 ppm (Tetranychus urticae; [6]) | percent effect (mortality or growth inhibition) at 200 ppm (Euschistus heros) | mortality at 200 ppm (Myzus persicae [1]; [7]) | mortality at 12 ppm (Myzus persicae [2]; [8])
